Test: Displacement of [3H]GGpp from GGTase1 expressed in Sf9 cells
Details: not given

SMILES	pIC50	IC50
O=C(O)C[C@H](Cc1c[nH]c2ccccc12)NC(=O)Cn1c(=O)[nH]c2ccccc2c1=O		> 100 µM
Cc1ccc(CN(CC(N)=O)C(=O)CCCCc2cc(-c3cccnc3)nn2-c2ccc(Cl)c(Cl)c2)cc1	4.53	
Cc1ccc(C(CO)NC(=O)c2ccc(-c3cc(-c4cccnc4)nn3-c3ccc(Cl)c(Cl)c3)s2)cc1 (stereo not given)	5.11	
CCCOc1ccc(-c2nn(-c3ccccc3)cc2/C=N/NC(=O)CNC(=O)c2cccc(Cl)c2)cc1	4.02	
CC(C)c1ccc(N(CC(=O)NCc2ccccc2)C(=O)Cn2nnc(-c3ccc(Cl)cc3)n2)cc1	4.19	
Cc1ccc(-c2cc(NCNCCCCS)ccc2C(=O)N[C@@H](CCC(C)C)C(=O)O)cc1	6.68	
CCCC(C(=O)NCc1ccccc1)N(Cc1ccccc1Cl)C(=O)Cn1nnc(-c2ccc(Cl)cc2)n1 (stereo not given)	4.43	
COc1ccc(OCc2nnc(SCC(=O)Nc3ccc(C(N)=O)cc3)n2CCc2ccccc2)cc1	5.56	
Cc1ccc(C(=O)N/C(=C/c2ccc(-c3ccc(Cl)c(Cl)c3)o2)C(=O)NCc2ccccc2)cc1	3.84	
NC(=O)CC(NC(=O)c1ccc(-c2cc(-c3cccnc3)nn2-c2ccc(Cl)c(Cl)c2)cc1)OCc1ccccc1 (stereo not given)	5.63	
NC(=O)CC(NC(=O)CCCNc1cc(-c2cccnc2)nn1-c1ccc(Cl)c(Cl)c1)c1cccnc1 (stereo not given)	6.32	
Cc1ccc(C(=O)N/C(=C\c2ccc(-c3ccc(Cl)c(Cl)c3)o2)C(=O)NCc2ccccc2)cc1	5.56	
Cc1ccc(C(CC(N)=O)NC(=O)c2ccc(-c3cc(-c4cccnc4)nn3CCc3ccccc3)s2)cc1 (stereo not given)	4.02	
CCCn1c(COc2ccc(C(C)Cc3ccccc3)cc2)nnc1SCC(=O)Nc1ccc(C(N)=O)cc1 (stereo not given)	4.19	
Cc1ccc([C@@H](CC(N)=O)NC(=O)c2ccc(-c3cc(-c4cccnc4)nn3-c3ccc(Cl)c(Cl)c3)s2)cc1	4.68	
Cc1ccc(C(NC(=O)c2ccc(-c3cc(-c4cccnc4)nn3-c3ccc(Cl)c(Cl)c3)s2)C(O)C(N)=O)cc1 (stereo not given)	5.08	
Cc1ccc(CCN(CC(N)=O)C(=O)CCCOc2cc(-c3cccnc3)nn2-c2ccc(Cl)c(Cl)c2)cc1	5.82	
NC(=O)CC(NC(=O)c1ccc(-c2cc(-c3cccnc3)nn2-c2ccc(Cl)c(Cl)c2)s1)OCc1ccccc1 (stereo not given)	5.57	
Cc1ccc([C@@H](CC(N)=O)NC(=O)c2ccc(-c3cc(-c4cccnc4)nn3-c3ccc(Cl)c(Cl)c3)cc2)cc1	3.84	
NC(=O)CN(CC1CCCCC1)C(=O)CCCOc1cc(-c2cccnc2)nn1-c1ccc(Cl)c(Cl)c1	5.84	
Cc1ccc(-c2nn(-c3ccccc3)cc2/C=N/NC(=O)C(=O)Nc2cc(Cl)ccc2Cl)cc1	4.43	
CCCC[C@H](NC(=O)c1ccc(NCNCCCCS)cc1-c1ccccc1)C(=O)O	7.14	
Cc1ccc(C(CC(=O)O)NC(=O)c2ccc(-c3cc(-c4cccnc4)nn3-c3ccc(Cl)c(Cl)c3)s2)cc1 (stereo not given)	5.73	
Cc1ccc(C(CC(N)=O)NC(=O)c2ccc(-c3cc(-c4cccnc4)nn3-c3ccc(Cl)c(Cl)c3)cc2)cc1 (stereo not given)	5.82	
O=C(Cn1c(=O)n(Cc2c[nH]cn2)c(=O)c2ccccc21)N[C@@H](Cc1ccccc1)C(=O)O	5.77	
O=C(O)CNC(=O)[C@H](Cc1c[nH]c2ccccc12)NC(=O)Cn1c(=O)[nH]c2ccccc2c1=O		> 100 µM
COc1ccccc1-c1nnc(SCC(=O)Nc2ccc(C(N)=O)cc2)n1CCc1ccccc1	5.56	

Continued, values first:

pIC50	IC50	SMILES
7.17		Cc1ccc(C(CC(N)=O)NC(=O)CCCOc2c(CCCO)c(-c3cccnc3)nn2-c2ccc(Cl)c(Cl)c2)cc1 (stereo not given)
6.21		NC(=O)CC(NC(=O)CCCOc1cc(-c2cccnc2)nn1-c1ccc(Cl)c(Cl)c1)c1ccc(-c2ccccc2)cc1 (stereo not given)
7.55		CSCCCc1c(-c2cccnc2)nn(-c2ccc(Cl)c(Cl)c2)c1OCCCC(=O)NC(CC(N)=O)c1ccc(C)cc1 (stereo not given)
6.35		Cc1ccc(C(CC(N)=O)NC(=O)CCNCc2cc(-c3cccnc3)nn2-c2ccc(Cl)c(Cl)c2)cc1 (stereo not given)
5.4		Cc1ccc(C(NC(N)=O)NC(=O)CCCOc2cc(-c3cccnc3)nn2-c2ccc(Cl)c(Cl)c2)cc1 (stereo not given)
5.97		Cc1ccc(C(NC(=O)CCCOc2cc(-c3cccnc3)nn2-c2ccc(Cl)c(Cl)c2)C(=N)N)cc1 (stereo not given)
5.58		Cc1ccc(C(CC(N)=O)NC(=O)CC(=O)Nc2cc(-c3cccnc3)nn2-c2ccc(Cl)c(Cl)c2)cc1 (stereo not given)
5.23		Cc1ccc(C(CC(N)=O)NC(=O)CC(=O)CNc2cc(-c3cccnc3)nn2-c2ccc(Cl)c(Cl)c2)cc1 (stereo not given)
4.86		Cc1ccc(C(CC(N)=O)NC(=O)CC(=O)COc2cc(-c3cccnc3)nn2-c2ccc(Cl)c(Cl)c2)cc1 (stereo not given)
5.7		CCN(CCCC(=O)NC(CC(N)=O)c1ccc(C)cc1)c1cc(-c2cccnc2)nn1-c1ccc(Cl)c(Cl)c1 (stereo not given)
6.23		Cc1ccc(C(CC(N)=O)NC(=O)CC[C@H](C)Nc2cc(-c3cccnc3)nn2-c2ccc(Cl)c(Cl)c2)cc1 (stereo not given in full)
5.79		Cc1ccc(C(CC(N)=O)NC(=O)C[C@H](O)COc2cc(-c3cccnc3)nn2-c2ccc(Cl)c(Cl)c2)cc1 (stereo not given in full)
5.53		Cc1ccc(C(CC(N)=O)NC(=O)CCCCOc2cc(-c3cccnc3)nn2-c2ccc(Cl)c(Cl)c2)cc1 (stereo not given)
6.27		CCN(C(=O)CCCOc1cc(-c2cccnc2)nn1-c1ccc(Cl)c(Cl)c1)C(CC(N)=O)c1ccc(C)cc1 (stereo not given)
5.94		Cc1ccc(C(CC(N)=O)NC(=O)[C@H]2C[C@H](c3cc(-c4cccnc4)nn3-c3ccc(Cl)c(Cl)c3)C2(C)C)cc1 (stereo not given in full)
5.09		Cc1ccc(C(CC(N)=O)NC(=O)CCCN(CCN2CCOCC2)c2cc(-c3cccnc3)nn2-c2ccc(Cl)c(Cl)c2)cc1 (stereo not given)
4.3		Cc1ccc(C(CC(N)=O)NC(=O)C2CCCN(Cc3cc(-c4cccnc4)nn3-c3ccc(Cl)c(Cl)c3)C2)cc1 (stereo not given)
7		COCCN(CCC(=O)NC(CC(N)=O)c1ccc(C)cc1)Cc1cc(-c2cccnc2)nn1-c1ccc(Cl)c(Cl)c1 (stereo not given)
4.35		Cc1ccc(C(CC(N)=O)NC(=O)c2ccc(-c3cc(-c4cccnc4)nn3-c3ccc(Cl)c(Cl)c3)s2)cc1 (stereo not given)
4.43		Cc1ccc(C(CC(N)=O)NC(=O)COc2cc(-c3cccnc3)nn2-c2ccc(Cl)c(Cl)c2)cc1 (stereo not given)

Same assay, conditions: read-out: IC50

IC50	SMILES
43 µM	CCc1ccc(OCc2nnc(SCC(=O)Nc3ccc(C(N)=O)cc3)n2C(C)c2ccccc2)cc1 (stereo not given)
35 µM	CC[C@@H](C(=O)NCc1ccccc1)N(Cc1ccccc1Cl)C(=O)Cn1nnc(-c2ccc(C)cc2)n1
8 µM	Cc1ccc(C(=O)N/C(=C/c2ccc(-c3ccc(Cl)c(Cl)c3)o2)C(=O)NCc2ccccc2)cc1

From ChEMBL document CHEMBL1137785, “Discovery of geranylgeranyltransferase-I inhibitors with novel scaffolds by the means of quantitative structure-activity relationship modeling, virtual screening, and experimental validation” (J Med Chem, 2009)
